{"source": "patent US11878050B2", "about": "“Glycoside hydrolases to treat biofilm-associated infections” (priority 2018, dated 2024)", "key": {"[1]": {"tested_on": "bioluminescent P. aeruginosa", "assay": "Antibiotic protection and infection clearance in vivo (IVIS)", "set-up": "species or system mice", "method": "Glycoside hydrolase and antibiotic treatments. Established infections were treated via topical application of vehicle control, heat-inactivated GH, antibiotic alone (or in combination with heat-inactivated GH), GH alone, or GH plus antibiotic (meropenem). Briefly, woundbeds were irrigated with a 10% α-amylase and cellulase (in a 1:1 combination) solution in three separate topical infusions with 30 minutes of dwell time for each, with or without antibiotics. Septicemia was determined by monitoring animals for signs of systemic illness (lethargy, loss of appetite, labored breathing, tremors), and moribund mice were euthanized via phenobarbital injection. […] In order to image dispersal in vivo, the inventors used a Lumina II XR In Vivo Imaging System (IVIS®). Mice with established wound infections were administered GH therapy, and imaging occurred immediately following treatment, and every 4-5 hours subsequently. For experiments involving systemic antibiotic therapy, peritoneal dosing of 300 mg/kg meropenem occurred 4 hours prior to, and 8 hours following GH treatment. […]\nTo test if concurrent systemic or topical antibiotics can protect against dispersal-mediated septicemia, 48-hour chronic wound infections comprised of bioluminescent P. aeruginosa were treated with 10% GH as above, and monitored via IVIS for systemic spread."}, "[2]": {"tested_on": "S. aureus and P. aeruginosa polymicrobial biofilms harvested from murine chronic wounds", "assay": "Ex vivo treatment of murine chronic wound biofilms: biomass degraded", "format": "cell-based", "settings": "5% enzyme solutions, 1 hour", "source_text": "(§1) Murine chronic wound model. A murine chronic wound model has been previously described [Dalton T, Dowd S E, Wolcott R D, Sun Y, Watters C, Griswold J A, et al. An in vivo polymicrobial biofilm wound infection model to study interspecies interactions. PLoS One. 2011; 6(11):e27317. Epub 2011/11/15. Brown R L, Greenhalgh D G. Mouse models to study wound closure and topical treatment of infected wounds in healing-impaired and normal healing hosts. Wound Repair Regen. 1997; 5(2):198-204. Epub 1997/04/01. Rumbaugh K P, Diggle S P, Watters C M, Ross-Gillespie A, Griffin A S, West S A. Quorum sensing and the social evolution of bacterial virulence. Curr Biol. 2009; 19(4):341-5. Epub 2009/02/24, relevant portions incorporated herein by reference]. […] Percent dispersal, percent biomass degraded, and antibiotic tolerance were calculated as with the LWM, described above.\n(§2) In order to determine if the results obtained in vitro translated to a more clinically relevant model, the inventors tested the ability of GH solutions to degrade the biomass of, and disperse the cells from, biofilms grown in vivo. […] For analysis of biomass degradation, the inventors measured the weights of the extracted wound-beds before and after treatment with GH, and compared the percent reduction in weight to that of biofilms treated with heat-inactivated GH. […]"}, "[3]": {"tested_on": "S. aureus and P. aeruginosa biofilms", "assay": "Lubbock Chronic Wound Biofilm Model (wound-like media)", "format": "cell-based", "source_text": "Lubbock Chronic Wound Biofilm Model. The Lubbock Chronic Wound Biofilm Model, or Lubbock wound model (LWM), has been previously described [Sun Y, Dowd S E, Smith E, Rhoads D D, Wolcott R D. In vitro multispecies Lubbock chronic wound biofilm model. Wound Repair Regen. 2008; 16(6):805-13. Epub 2009/01/09. DeLeon S, Clinton A, Fowler H, Everett J, Horswill A R, Rumbaugh K P. Synergistic interactions of Pseudomonas aeruginosa and Staphylococcus aureus in an in vitro wound model. Infect Immun. 2014; 82(11):4718-28. Epub 2014/08/27. Dalton T, Dowd S E, Wolcott R D, Sun Y, Watters C, Griswold J A, et al. An in vivo polymicrobial biofilm wound infection model to study interspecies interactions. PLoS One. 2011; 6(11):e27317. Epub 2011/11/15, relevant portions incorporated herein by reference]. Briefly, wound-like media (50% bovine plasma, 45% Bolton broth, 5% laked horse blood) was inoculated with […] bacterial cells, and incubated for 48 hours, statically, at 37° C. […] Percent bacterial cell dispersal was calculated by finding the quotient of […]. Percent biomass degraded was calculated by rinsing to remove the post-treatment supernatant, weighing the remaining biomass, and finding the quotient of the post-treatment biofilm weight divided by the pre-treatment biofilm weight. […]"}, "biofilms": {"tested_on": "biofilms", "settings": "cited from earlier work; for Summary (biofilm-disrupting ability): Table 1, literature"}, "[4]": {"tested_on": "S. aureus and P. aeruginosa polymicrobial biofilms harvested from murine chronic wounds", "assay": "Ex vivo treatment of murine chronic wound biofilms: cell dispersal", "format": "cell-based", "settings": "5% enzyme solutions, 1 hour, vs vehicle and heat-inactivated controls", "source_text": "as §1, §2"}, "[5]": {"tested_on": "S. aureus and P. aeruginosa", "assay": "Total CFU after GH treatment in vitro (bactericidal activity)", "format": "cell-based", "settings": "5% GH solutions, 30 minutes", "procedure": "(§3) In vitro cell dispersal. To measure percent dispersal in vitro, the wells of a 24-well non-tissue culture treated plate (Falcon®) were inoculated with 1:100 dilutions of overnight cultures of S. aureus and P. aeruginosa, and biofilms were allowed to grow for 48 hours at 37° C., with shaking at 80 rpm. Following incubation, the supernatant was removed, and each well was gently rinsed with PBS to discard any non-attached biomass. Subsequently, wells were treated with enzyme solutions, vehicle, or heat-inactivated controls. Following treatment, the supernatant was removed and centrifuged at 11,000 rcf for 10 minutes in order to pellet the cells. Cell pellets were then re-suspended in PBS for CFU quantification. Biofilm remaining on the wells were dispersed via sonication and suspended in PBS for CFU quantification. Percent bacterial cell dispersal was calculated by finding the quotient of […]."}, "[6]": {"tested_on": "S. aureus and P. aeruginosa biofilms", "assay": "In vitro well-plate cell dispersal assay", "format": "cell-based", "settings": "5% GH solutions, 30 minutes, vs vehicle and heat-inactivated controls", "procedure": "as §3"}, "[7]": {"tested_on": "S. aureus and P. aeruginosa biofilms", "assay": "Crystal violet biomass assay", "format": "cell-based", "procedure": "Crystal violet assay. A traditional in vitro crystal violet (CV) biomass assay was performed by inoculating the wells of a 24-well non-tissue culture treated plate (Falcon®) containing 13 mm plastic cell culture coverslips with 1:100 dilutions of overnight cultures of S. aureus and P. aeruginosa in fresh LB broth, and allowing for 48 hours of growth at 37° C., with shaking at 80 rpm. Planktonic cells were then removed via rinsing with PBS, and the biofilm-coated coverslips were treated with enzyme solutions, vehicle, or heat-inactivated controls. After treatment, the coverslips were rinsed with ddH2O, and the remaining biomass was stained with 1% CV in ddH2O for 20 minutes. Coverslips were then rinsed once more with ddH2O and transferred to fresh wells, in which the CV was eluted in 95% ethanol for 1 hour. The eluted CV from treated vs. untreated samples was quantified via absorbance of 595 nm light in a Synergy H1 Hybrid Reader (Biotek®)."}}}
{"compound": "C[C@@H](O)[C@H]1C(=O)N2C(C(=O)O)=C(S[C@@H]3CN[C@H](C(=O)N(C)C)C3)[C@H](C)[C@H]12", "note": "[meropenem]", "values": [{"measurement": "protection against GH dispersal-induced dissemination", "setting": "[1]; systemic meropenem (300 mg/kg) with 10% GH", "value": "prevented dissemination of P. aeruginosa"}, {"measurement": "protection against GH dispersal-induced dissemination", "setting": "[1]; topical meropenem (3 mg/ml) with 10% GH", "value": "prevented dissemination of P. aeruginosa"}]}
{"compound": "cellulase", "values": [{"measurement": "percent biomass degraded", "setting": "[2]", "value": "able to degrade"}, {"measurement": "disassociation of biofilms cultured in wound-like media", "setting": "[3]; 10%, 1 hour, 24-hour-old polymicrobial biofilms", "value": "completely disassociates"}, {"measurement": "Summary (biofilm-disrupting ability)", "setting": "biofilms", "value": "shown to cause the dispersal of S. aureus"}, {"measurement": "biofilm inhibition / disruption in earlier studies", "setting": "biofilms; literature", "value": "inhibits biofilm growth by Burkholderia cepacia and Pseudomonas aeruginosa"}, {"measurement": "percent dispersal", "setting": "[4]", "value": "significantly more total cell dispersal"}, {"measurement": "total CFU (supernatant + biofilm), bactericidal activity", "setting": "[5]", "value": "no bactericidal activity"}, {"measurement": "percent dispersal", "setting": "[6]", "value": "significant amount of dispersal"}, {"measurement": "degradation of pre-formed biofilms (crystal violet)", "setting": "[7]; 0.0025%, 10 minutes", "value": "significantly degraded"}, {"measurement": "biomass of the biofilms (retention of crystal violet stain)", "setting": "[7]; 0.25% GH solution, 30 minutes, 48 h biofilms", "value": "significant reduction in biomass"}]}
{"compound": "gentamicin sulfate [reference compound]", "values": [{"measurement": "cells remaining viable after gentamicin treatment", "setting": "[3]; P. aeruginosa and S. aureus co-cultured in the LWM, gentamicin alone", "value": "approximately half"}]}
{"compound": "Hyaluronidase [reference compound]", "values": [{"measurement": "Summary (biofilm-disrupting ability)", "setting": "biofilms", "value": "against HA-containing biofilms, dispersal"}]}
